Measured values as given in PubChem BioAssay (NCI).
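These data come from cells grown in 96-well plates and exposed to compound for 48 hours at five concentrations. GI50 marks 50% less growth. At the TGI there is no net growth.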

Assays:
Test in all cases: DTP human tumour cell line panel, 48 h
[1] = system: KM12 colon
[2] = system: MALME-3M melanoma
[3] = system: NCI-H23 lung
[4] = system: NCI-H226 lung
[5] = system: MDA-MB-231 breast
[6] = system: SR leukemia
[7] = system: SK-MEL-28 melanoma
[8] = system: DU-145 prostate
[9] = system: CAKI-1 renal
[10] = system: UACC-257 melanoma
[11] = system: HCT-15 colon
[12] = system: SN12C renal
[13] = system: NCI-H460 lung
[14] = system: PC-3 prostate
[15] = system: BT-549 breast
[16] = system: SNB-19 CNS
[17] = system: MOLT-4 leukemia
[18] = system: UACC-62 melanoma
[19] = system: MDA-MB-435
[20] = system: SF-539 CNS
[21] = system: M14 melanoma
[22] = system: OVCAR-5 ovarian
[23] = system: SK-OV-3 ovarian
[24] = system: CCRF-CEM leukemia
[25] = system: TK-10 renal
[26] = system: SK-MEL-2 melanoma
[27] = system: EKVX NSCLC
[28] = system: OVCAR-8 ovarian
[29] = system: ACHN renal
[30] = system: U251 CNS
[31] = system: HCC-2998 colon
[32] = system: LOX IMVI melanoma
[33] = system: A498 renal
[34] = system: HOP-92 NSCLC
[35] = system: SF-268 CNS
[36] = system: T-47D breast
[37] = system: HOP-62 NSCLC
[38] = system: OVCAR-4 ovarian
[39] = system: 786-0 renal
[40] = system: IGROV1 ovarian
[41] = system: A549 NSCLC
[42] = system: SF-295 CNS
[43] = system: NCI/ADR-RES ovarian
[44] = system: RXF 393 renal
[45] = system: SW-620 colon
[46] = system: HL-60(TB) leukemia
[47] = system: OVCAR-3 ovarian
[48] = system: HS 578T breast
[49] = system: RPMI-8226 leukemia
[50] = system: SK-MEL-5 melanoma
[51] = system: SNB-75 CNS
[52] = system: HCT-116 colon
[53] = system: COLO 205 colon
[54] = system: K-562 leukemia
[55] = system: UO-31 renal
[56] = system: NCI-H522 lung
[57] = system: MDA-MB-468 breast
[58] = system: MCF7 breast
[59] = system: HT29 colon

SMILES: Nc1nn2c(-c3cc4cc(Br)ccc4oc3=O)ccnc2c1N=Nc1ccccc1
- GI50 [1]: 3.32 µM
- TGI [1]: > 100 µM
- GI50 [2]: 2720 nM
- TGI [2]: 10.9 µM
- GI50 [3]: 2330 nM
- TGI [3]: 5.57 µM
- GI50 [4]: 2160 nM
- TGI [4]: 5.84 µM
- GI50 [5]: 1990 nM
- TGI [5]: 4.43 µM
- GI50 [6]: 5.38 µM
- TGI [6]: > 100 µM
- GI50 [7]: 5.02 µM
- TGI [7]: 22.3 µM
- GI50 [8]: 4.71 µM
- TGI [8]: > 100 µM
- GI50 [9]: 5.55 µM
- TGI [9]: 25.2 µM
- GI50 [10]: 11.8 µM
- TGI [10]: 40.9 µM
- GI50 [11]: 4.87 µM
- TGI [11]: > 100 µM
- GI50 [12]: 1910 nM
- TGI [12]: 4.92 µM
- GI50 [13]: 1950 nM
- TGI [13]: 5.05 µM
- GI50 [14]: 2920 nM
- TGI [14]: 9.32 µM
- GI50 [15]: 1920 nM
- TGI [15]: 3.77 µM
- GI50 [16]: 1940 nM
- TGI [16]: 4.26 µM
- GI50 [17]: 31.8 µM
- TGI [17]: > 100 µM
- GI50 [18]: 5.52 µM
- TGI [18]: 22.1 µM
- GI50 [19]: 5.31 µM
- TGI [19]: > 100 µM
- GI50 [20]: 1990 nM
- TGI [20]: 3.88 µM
- GI50 [21]: 16 µM
- TGI [21]: > 100 µM
- GI50 [22]: 3.29 µM
- TGI [22]: 15.1 µM
- GI50 [23]: 1870 nM
- TGI [23]: 3.95 µM
- GI50 [24]: 24.6 µM
- TGI [24]: > 100 µM
- GI50 [25]: 12.7 µM
- TGI [25]: 37.2 µM
- GI50 [26]: 3.96 µM
- TGI [26]: 19.8 µM
- GI50 [27]: 3.29 µM
- TGI [27]: 18 µM
- GI50 [28]: 2240 nM
- TGI [28]: 5.36 µM
- GI50 [29]: 3.16 µM
- TGI [29]: 14.4 µM
- GI50 [30]: 2010 nM
- TGI [30]: 4.4 µM
- GI50 [31]: 3.17 µM
- TGI [31]: 14.8 µM
- GI50 [32]: 3.09 µM
- TGI [32]: 10.7 µM
- GI50 [33]: 1970 nM
- TGI [33]: 6.71 µM
- GI50 [34]: 2210 nM
- TGI [34]: 6.04 µM
- GI50 [35]: 2120 nM
- TGI [35]: 5.66 µM
- GI50 [36]: 2790 nM
- TGI [36]: 13.2 µM
- GI50 [37]: 1840 nM
- TGI [37]: 4.23 µM
- GI50 [38]: 2890 nM
- TGI [38]: 15.3 µM
- GI50 [39]: 2010 nM
- TGI [39]: 4.71 µM
- GI50 [40]: 4.57 µM
- TGI [40]: 33.9 µM
- GI50 [41]: 3.42 µM
- TGI [41]: 29.3 µM
- GI50 [42]: 2100 nM
- TGI [42]: 4.88 µM
- GI50 [43]: 2070 nM
- TGI [43]: 4.54 µM
- GI50 [44]: 1990 nM
- TGI [44]: 4.95 µM
- GI50 [45]: 6.24 µM
- TGI [45]: > 100 µM
- GI50 [46]: > 100 µM
- TGI [46]: > 100 µM
- GI50 [47]: 3.24 µM
- TGI [47]: 23.9 µM
- GI50 [48]: 3.11 µM
- TGI [48]: 17 µM
- GI50 [49]: 31.6 µM
- TGI [49]: > 100 µM
- GI50 [50]: 2710 nM
- TGI [50]: 8.1 µM
- GI50 [51]: 1290 nM
- TGI [51]: 3.18 µM
- GI50 [52]: 2230 nM
- TGI [52]: 4.73 µM
- GI50 [53]: 23.2 µM
- TGI [53]: > 100 µM
- GI50 [54]: 26.7 µM
- TGI [54]: > 100 µM
- GI50 [55]: 11.1 µM
- TGI [55]: 86.6 µM
- GI50 [56]: 1900 nM
- TGI [56]: 4.19 µM
- GI50 [57]: 2210 nM
- TGI [57]: 9.7 µM
- GI50 [58]: 3.24 µM
- TGI [58]: 17.5 µM
- GI50 [59]: 3.13 µM
- TGI [59]: 11.5 µM
